In brackets after ≈: the same amount, converted by molar mass.
Columns and labels:
Mus musculus [1] = assay: Analgesic activity in acetic acid induced ICR mouse assessed as average writhing times at 25 mg/kg, iv administered for 15 mins followed by acetic acid injection and measured within 15 mins (reference value: 26.1 +/- 16.3); type: functional; details: time 30 min, 0.5 h
Mus musculus [2] = assay: Analgesic activity in acetic acid induced ICR mouse assessed as average writhing times at 3.13 mg/kg, iv administered for 15 mins followed by acetic acid injection and measured within 15 mins (reference value: 26.1 +/- 16.3); type: functional; details: time 30 min, 0.5 h
Mus musculus [3] = assay: Antinociceptive activity in acetic acid induced ICR mouse assessed as inhibition effect at 12.50 mg/kg, iv administered for 15 mins followed by acetic acid injection and measured within 15 mins; type: functional; details: 0.5 h, time 30 min
[4] = Aqueous solubility of the compound
Mus musculus [5] = assay: Antinociceptive activity in acetic acid induced ICR mouse assessed as inhibition effect at 3.13 mg/kg, iv administered for 15 mins followed by acetic acid injection and measured within 15 mins; type: functional; details: 0.5 h, time 30 min
Rattus norvegicus = species on record: Rattus norvegicus; assay: Antiinflammatory activity in carrageenan-induced Sprague-Dawley rat assessed as paw withdrawal threshold measured after 2.5 hrs by paw pressure test; type: functional
Mus musculus [6] = assay: Analgesic activity in acetic acid induced ICR mouse assessed as average writhing times at 6.25 mg/kg, iv administered for 15 mins followed by acetic acid injection and measured within 15 mins (reference value: 26.1 +/- 16.3); type: functional; details: time 30 min, 0.5 h
Mus musculus [7] = assay: Analgesic activity in iv dosed ICR mouse assessed as reduction in acetic acid induced writhing administered for 15 mins followed by acetic acid injection and measured within 15 mins; type: functional; details: 0.5 h, time 30 min
Mus musculus [8] = assay: Analgesic activity in acetic acid induced ICR mouse assessed as average writhing times at 12.50 mg/kg, iv administered for 15 mins followed by acetic acid injection and measured within 15 mins (reference value: 26.1 +/- 16.3); type: functional; details: dose 12.5 mg/kg, time 30 min, 0.5 h
Mus musculus [9] = assay: Antinociceptive activity in acetic acid induced ICR mouse assessed as inhibition effect at 25 mg/kg, iv administered for 15 mins followed by acetic acid injection and measured within 15 mins; type: functional; details: 0.5 h, time 30 min
Mus musculus [10] = assay: Antinociceptive activity in acetic acid induced ICR mouse assessed as inhibition effect at 6.25 mg/kg, iv administered for 15 mins followed by acetic acid injection and measured within 15 mins; type: functional; details: 0.5 h, time 30 min

Compound `CC(C)Cc1ccc(C(C)C(=O)O)cc1` (stereo unspecified) [IBUPROFEN] has an Activity (Mus musculus [1]) of 3, an Activity (Mus musculus [2]) of 21 and an inhibition in vivo at 12.5 mg/kg (Mus musculus [3]) of 84.7%. It also gave a solubility [4] of 21.9 µg/mL (≈ 106 µM), an inhibition in vivo at 3.13 mg/kg (Mus musculus [5]) of 19.5% and an ED50 (Rattus norvegicus) of 21 mg/kg. For the same compound, the Activity (Mus musculus [6]) was 6.1, the ED50 (Mus musculus [7]) was 5 mg/kg and the Activity (Mus musculus [8]) was 4. For the same compound, the inhibition in vivo at 25 mg/kg (Mus musculus [9]) was 88.5% and the inhibition in vivo at 6.25 mg/kg (Mus musculus [10]) was 76.6%.
